{
  "source": "patent US11040975B2",
  "about": "“Carbocyclic nucleoside reverse transcriptase inhibitors” (Merck Sharp & Dohme Corp., priority 2017, dated 2021)",
  "key": {"HIV-1 (H9IIIB virus)": {"tested_on": "HIV-1 (H9IIIB virus)", "test": "Viking assay: antiviral potency in a multiple round HIV-1 infection assay (MT4-GFP cells)", "assay_type": "cell-based", "details": "Human immunodeficiency virus 1, MT4-GFP cells, 10% normal human serum; inhibition of reproductive ratio R0; read-out: Viking, IC50 (10% NHS)", "experimental": "Assessing Antiviral Potency in a Multiple Round HIV-1 Infection Assay.\nHIV-1 replication was monitored using MT4-gag-GFP clone D3 (hereafter designate MT4-GFP), which are MT-4 cells modified to harbor a GFP reporter gene, the expression of which is dependent on the HIV-1 expressed proteins tat and rev. Productive infection of an MT4-GFP cell with HIV-1 results in GFP expression approximately 24h post-infection.\nMT4-GFP cells were maintained at 37° C./5% CO2/90% relative humidity in RPMI 1640 supplemented with 10% fetal bovine serum, 100 U/mL penicillin/streptomycin, and 400 μg/mL G418 to maintain the reporter gene. For infections, MT4-GFP cells were placed in the same medium lacking G418 and infected overnight with H9IIIB virus at an approximate multiplicity of infection of 0.01 in the same incubation conditions. Cells were then washed and re-suspended in either RPMI 1640 containing 10% or 50% normal human serum at 1.6×10^5 cells/mL. Compound plates were prepared by dispensing compounds dissolved in DMSO into wells of 384 well poly D lysine-coated plates ([…]) using an ECHO acoustic dispenser. Each compound was tested in a 10 point serial 3-fold dilution (typical final concentrations: 8.4 μM-0.43 nM). Controls included no inhibitor (DMSO only) and a combination of three antiviral agents (efavirenz, indinavir, and an integrase strand transfer inhibitor at final concentrations of 4 μM each). Cells were added (50 μL/well) to compound plates and the infected cells were maintained at 37° C./5% CO2/90% relative humidity.\nInfected cells were quantified at two time points, ˜48h and ˜72h post-infection, by counting the number of green cells in each well using an Acumen eX3 scanner. The increase in the number of green cells over ˜24h period gives the reproductive ratio, R0, which is typically 5-15 and has been shown experimentally to be in logarithmic phase (data not shown). Inhibition of R0 is calculated for each well, and IC50s determined by non-linear 4-parameter curve fitting."}, "MT4-GFP cells": {"tested_on": "MT4-GFP cells", "test": "CTG assay: cytotoxicity in CellTiter-Glo Luminescent Cell Viability Assay", "assay_type": "cell-based", "details": "CC50, MT4-GFP cells, 10% normal human serum, 48h incubation", "experimental": "Assessing Cytotoxicity in CellTiter-Glo Luminescent Cell Viability Assay (CTG).\nMT4-GFP cells were seeded in RPMI 1640 supplemented with 10% fetal bovine serum, 100 U/mL penicillin/streptomycin overnight at 37° C./5% CO2/90% relative humidity. Cells were then washed and resuspended in RPMI 1640 containing 10% normal human serum at a density of 0.8×10^5 cells/mL. Compound plates were prepared by dispensing compounds dissolved in DMSO into wells of 384 well solid black plates (Corning 3571) using an ECHO acoustic dispenser (0.2 μl/well). Each compound was tested in a 10 point serial 3-fold dilution (final concentrations: 8.4 μM-0.43 nM). Controls included DMSO. Cells were added (50 μL/well) to compound plates and were maintained at 37° C./5% CO2/90% relative humidity. CTG reagent (Promega, G7573) was added to the cell plates after 48h incubation according to the manufacturer's description. Luminescence signals were recorded on EnVision plate reader (PerkinElmer). CC50s were determined by non-linear 4-parameter curve fitting. The resulting data is shown in Table 3 with the marketed HIV nucleoside reverse transcriptase inhibitor AZT (azidothymidine, zidovudine) included as a control."}},
  "data": [
    {"compound": "C#C[C@]1(CO)C[C@@H](n2cnc3c(N)nc(F)nc32)C[C@@H]1O", "note": "(racemic) [Example (+/−) 13, (1S,2S,4R)-4-(6-amino-2-fluoro-9H-purin-9-yl)-2-ethynyl-2-(hydroxymethyl)cyclopentan-1-ol and (1R,2R,4S)-4-(6-amino-2-fluoro-9H-purin-9-yl)-2-ethynyl-2-(hydroxymethyl)cyclopentan-1-ol]", "values": [
      {"measurement": "IC50", "setting": "HIV-1 (H9IIIB virus)", "value": 5.43, "unit": "µM"},
      {"measurement": "CTG", "setting": "MT4-GFP cells", "value": "> 42", "unit": "µM"}
    ]},
    {"compound": "C#C[C@]1(CO)C[C@@H](n2cnc3c(Cl)nc(N)nc32)C[C@@H]1O", "note": "(racemic) [Example (+/−) 14, (1S,2S,4R)-4-(2-amino-6-chloro-9H-purin-9-yl)-2-ethynyl-2-(hydroxymethyl)cyclopentan-1-ol and (1R,2R,4S)-4-(2-amino-6-chloro-9H-purin-9-yl)-2-ethynyl-2-(hydroxymethyl)cyclopentan-1-ol]", "values": [
      {"measurement": "IC50", "setting": "HIV-1 (H9IIIB virus)", "value": 5.64, "unit": "µM"},
      {"measurement": "CTG", "setting": "MT4-GFP cells", "value": "> 42", "unit": "µM"}
    ]},
    {"compound": "C#C[C@]1(CO)C[C@@H](n2cnc3c(Cl)nc(Cl)nc32)C[C@@H]1O", "note": "(racemic) [Example (+/−) 17, (1S,2S,4R)-4-(2,6-dichloro-9H-purin-9-yl)-2-ethynyl-2-(hydroxymethyl)cyclopentan-1-ol and (1R,2R,4S)-4-(2,6-dichloro-9H-purin-9-yl)-2-ethynyl-2-(hydroxymethyl)cyclopentan-1-ol]", "values": [
      {"measurement": "IC50", "setting": "HIV-1 (H9IIIB virus)", "value": 17.4, "unit": "µM"},
      {"measurement": "CTG", "setting": "MT4-GFP cells", "value": 19.9, "unit": "µM"}
    ]},
    {"compound": "C#C[C@]1(CO)C[C@@H](n2cnc3c(N)nc(Cl)nc32)C[C@@H]1O", "note": "(racemic) [Example (+/−) 18, (1S,2S,4R)-4-(6-amino-2-chloro-9H-purin-9-yl)-2-ethynyl-2-(hydroxymethyl)cyclopentan-1-ol and (1R,2R,4S)-4-(6-amino-2-chloro-9H-purin-9-yl)-2-ethynyl-2-(hydroxymethyl)cyclopentan-1-ol]", "values": [
      {"measurement": "IC50", "setting": "HIV-1 (H9IIIB virus)", "value": 19, "unit": "µM"},
      {"measurement": "CTG", "setting": "MT4-GFP cells", "value": "> 42", "unit": "µM"}
    ]},
    {"compound": "C#C[C@@]1(CO)C[C@H](n2cnc3c(N)nc(Cl)nc32)C[C@H]1O", "note": "(single isomer, unassigned) [Example 18A, (1S,2S,4R)-4-(6-amino-2-chloro-9H-purin-9-yl)-2-ethynyl-2-(hydroxymethyl)cyclopentan-1-ol or (1R,2R,4S)-4-(6-amino-2-chloro-9H-purin-9-yl)-2-ethynyl-2-(hydroxymethyl)cyclopentan-1-ol]", "values": [
      {"measurement": "IC50", "setting": "HIV-1 (H9IIIB virus)", "value": 25.2, "unit": "µM"},
      {"measurement": "CTG", "setting": "MT4-GFP cells", "value": "> 42", "unit": "µM"}
    ]},
    {"compound": "Cc1cn([C@H]2C[C@H](N=[N+]=[N-])[C@@H](CO)O2)c(=O)[nH]c1=O", "note": "[AZT, 3′-azido-3′-deoxythymidine, reference compound]", "values": [
      {"measurement": "IC50", "setting": "HIV-1 (H9IIIB virus)", "value": 0.037, "unit": "µM"},
      {"measurement": "CTG", "setting": "MT4-GFP cells", "value": ">8.4", "unit": "µM"}
    ]}
  ]
}
